A short description of data set [1]: Absorbance in 1,4-dioxane-water mixtures (D50, spirolactone-zwitterion equilibrium). The class given is physicochemical. As to conditions: 1,4-Dioxane-Water with constant 0.3% SDS additive; dielectric constant at which absorbance is halved. How it is done: The D50 values indicated herein are determined by measuring the respective absorbance of a sample (dye isomer or derivative or conjugate thereof), in varied water-1,4-dioxane mixtures with known dielectric constants according to an established method (e.g. Åkerlöf G, Short AO. J Am Chem Soc 1936, 58(7): 1241-1243). D50 is commonly used as numeric value for the evaluation of the equilibrium changes and represents a dielectric constant at which absorbance is halved (Butkevich A. N.; Mitronova G. Y.; Sidenstein. S. C.; Klocke J. L.; Kamin D.; Meineke D. N. H.; D'Este E.; Kraemer P. T.; Danzl J. G.; Belov V. N.; Hell S. W., Angew. Chem. Int. Ed. 2016, 55, 3290-3294).
The D50 values were calculated using the following equation:
where A0—absorbance at λmax at εr=0, λmax—the highest reached absorbance at λmax, d—dielectric constant of 1,4-dioxane-water mixture at a given point, Hill—Hill slope coefficient determining the steepness of a dose-response curve, D50—corresponds to d value that provokes half of the absorbance amplitude (λmax−A0).
Measurements of the absorbance changes in 1,4-dioxane-water mixtures were performed by pipetting 2 μL stock solutions of dyes or probes in DMSO into a 96 glass bottom well plate (11 wells per sample) made from propylene (Corning 3364). To the wells going from right to left 300 μL of 1,4-dioxane-water mixtures containing 100%, 90%, 80%, 70%, 60%, 50%, 40%, 30%, 20%, 10% or 0% 1,4-dioxane was added (if needed, mixtures with 0.3% SDS are used, with an exception in 100% dioxane due to solubility issues). After incubation for 1 hour at room temperature, absorption of solutions in each well was recorded from 320 nm to 850 nm with wavelength step size of 1 nm on a multiwell plate reader Spark® 20M (Tecan). The background absorption of the glass bottom plate was measured in wells containing only 1,4-dioxane-water mixture with similar amount of DMSO and subtracted from the spectra of the samples. […]
where A0—absorbance at λmax at εr=0, λmax—the highest reached absorbance at λmax. d—dielectric constant of 1,4-dioxane-water mixture at a given point, Hill—Hill slope coefficient determining the steepness of a dose-response curve, D50—corresponds to d value that provokes half of the absorbance amplitude (λmax−A0).
The ability of the fluorophores to switch between spirolactone and zwitterion states can be characterized by measuring the absorbance in water-1,4-dioxane mixtures with known dielectric constant (Åkerlöf G, Short A O. J Am Chem Soc 1936, 58(7): 1241-1243). D50 is commonly used as numeric value for the evaluation of the equilibrium changes and represents a dielectric constant at which absorbance is halved.

Data set [2] concerns tubulin. The data set is described as follows: Wide-field fluorescence microscopy of living primary fibroblasts stained with tubulin probes. It is filed as cell-based, human. The procedure:
Human primary dermal fibroblasts and HeLa cells were cultured in high-glucose DMEM (Life Technologies, Cat. No. 31053-028) supplemented with GlutaMAX-1 (Life Technologies, Cat. No. 35050-038) and 10% fetal bovine serum (FBS, Life Technologies, Cat. No. 10270-106) in a humidified 5% CO2 incubator at 37° C. The cells were split every 3-4 days or at confluence. Cells were seeded in glass bottom 12-well plates (MatTek Corporation, Cat. No. P12G-1.0-14-F).
Cells were stained with the fluorescent probes in DMEM (Thermo Fisher Scientific, Cat. No. 31053-028) supplemented with 10% FBS (Thermo Fisher Scientific, Cat. No. 10082139) at 37° C. and 5% CO2. […]
Actin/tubulin cytosolic signal was estimated using CellProfiler v.3.1.8. […] The background was subtracted from the original probe channel, and actin/tubulin staining was measured as mean pixel intensity per object in background-corrected probe channel. […]
As mentioned above, FIG. 3. illustrates the tubulin labelling of mammalian cells: a, structures of the tubulin probes. b, Wide-field fluorescence microscopy of living primary fibroblasts stained 100 nM TMR-LTX isomers for 1 h at 37° C. […] Hoechst staining is shown in cyan and all tubulin probes were shown in magenta. c, Quantification of fluorescence signal in the cytoplasm of living cells stained with tubulin probes. […]

For data set [3], the system named is HeLa cells. The data set is described as follows: Cell cycle analysis by imaging flow cytometry and EC50 determination (subG1 cells, cytotoxicity of tubulin probes). It is filed as cell-based. As to conditions: 24 h incubation at 37° C. in growth media; compared with parent compound larotaxel. The procedure:
HeLa cells were grown in 6-well plates (^˜250.000 cells per well) for 24 h in the presence of the fluorescent probe in variable concentrations. The probes were dissolved in DMSO at 500-2000-fold stock concentration and added to the media of cultured cells at 500-2000-fold dilution accordingly. In parallel, the appropriate DMSO control samples were prepared by adding corresponding amount of DMSO volume to the separate well. Cells were processed according to the NucleoCounter® NC-3000™ two-step cell cycle analysis protocol for cells attached to T-flasks, cell culture plates or micro-carriers. […] Cells were counted on a NucleoCounter® NC-3000™ in NC-Slide A2™ slides (Chemometec, Cat. No. 942-0001) loaded with ˜30 μl of each of the cell suspensions into the chambers of the slide. Each time, ^˜10.000 cells in total were measured, and the obtained cell cycle histograms were analysed with ChemoMetec NucleoView NC-3000 software, version 2.1.25.8. […] The EC50 values were determined by plotting the percentage of cells in subG1 phase and fitting the curve in GraphPad Prism 6 to the following function: […]
As mentioned above, FIG. 3. illustrates the tubulin labelling of mammalian cells: a, structures of the tubulin probes. b, Wide-field fluorescence microscopy of living primary fibroblasts stained 100 nM TMR-LTX isomers for 1 h at 37° C. […]

This note sets out measurements from patent publication US20230104281A1, “FLUORESCENT RHODAMINE DYES WITH ENHANCED CELL PERMEABILITY” (Max-Planck-Gesellschaft zur Foerderung der Wissenschaften …, priority 2020, published 2023).

Bounds are passed on as bounds.

For `CNc1ccc2c(c1)C(C)(C)c1cc(NC)ccc1C21OC(=O)c2c(C(=O)NCCCCCCCC(=O)N[C@@H](c3ccccc3)[C@@H](O)C(=O)O[C@H]3C[C@@]4(O)[C@@H](OC(=O)c5ccccc5)[C@@H]5[C@]6(OC(C)=O)CO[C@@H]6C[C@@H]6C[C@@]65C(=O)[C@H](OC(C)=O)C(=C3C)C4(C)C)cccc21` [580CP-LTX 4′-isomer], in data set [1], the D50 stood at 62 ± 1. Consider `CO[C@H]1C(=O)[C@]2(C)[C@@H](OC)C[C@H]3OC[C@@]3(OC(C)=O)[C@H]2[C@H](OC(=O)c2ccccc2)[C@]2(O)C[C@H](OC(=O)[C@H](O)[C@@H](NC(=O)CCCCCCCNC(=O)c3cccc4c3C(=O)OC43c4ccc(N(C)C)cc4C(C)(C)c4cc(N(C)C)ccc43)c3ccccc3)C(C)=C1C2(C)C` [610CP-CTX 4′-isomer], for which, in data set [1], the D50 amounted to 65 ± 2.

Take `CO[C@H]1C(=O)[C@]2(C)[C@@H](OC)C[C@H]3OC[C@@]3(OC(C)=O)[C@H]2[C@H](OC(=O)c2ccccc2)[C@]2(O)C[C@H](OC(=O)[C@H](O)[C@@H](NC(=O)CCCCCCCNC(=O)c3cccc4c3C(=O)OC43c4ccc(N(C)C)cc4[Si](C)(C)c4cc(N(C)C)ccc43)c3ccccc3)C(C)=C1C2(C)C` [SiR-CTX 4′-isomer]: the D50 in data set [1] is greater than 80. For `CC(=O)O[C@H]1C(=O)[C@]23C[C@H]2C[C@H]2OC[C@@]2(OC(C)=O)[C@H]3[C@H](OC(=O)c2ccccc2)[C@]2(O)C[C@H](OC(=O)[C@H](O)[C@@H](NC(=O)CCCCCCCNC(=O)c3cccc4c3C(=O)OC43c4ccc(N(C)C)cc4Oc4cc(N(C)C)ccc43)c3ccccc3)C(C)=C1C2(C)C` [TMR-LTX 4′-isomer], the membrane permeability entry in data set [2] (living cells, 100 nM probe, 1 h at 37° C., compared to 5′- and 6′-isomers) is given as “excellent membrane permeability”. The tubulin labelling specificity result in data set [2] (mammalian cells, simple incubation with probe) is “highly specific tubulin labelling”. Also, in data set [3], the “EC50, accumulation of subG1 phase cells (cytotoxicity)” value was “almost as efficiently as parent compound”. Besides, in data set [1], the D50 amounted to 26.5 ± 0.5.
